The text below walks through data of patent US20210386689A1, “METHODS OF TREATING CENTRAL NERVOUS SYSTEM DISORDERS” (Sunovion Pharmaceuticals Inc., priority 2018, published 2021).

Series [1] is described as follows: clinical. To be noted: human, in vivo. How it is done:
A randomized, 2-way crossover study to evaluate the effect of dasotraline on the pharmacokinetics (PK) of efavirenz, a sensitive cytochrome P450 2B6 (CYP2B6) substrate, and to assess the safety and tolerability of a single dose of dasotraline given concurrently with efavirenz was conducted.
Methodology: The study enrolled 29 healthy, non-smoking male and female subjects. All subjects were randomized to one of two treatment sequences: (A) Single doses of placebo and 400 mg efavirenz followed 28 days later by single doses of 24 mg dasotraline and 400 mg efavirenz; or (B) Single doses of 24 mg dasotraline and 400 mg efavirenz followed 28 days later by single doses of placebo and 400 mg efavirenz. Dasotraline and placebo were administered 6 hours prior to the planned dosing time of efavirenz. A screening period of approximately 4 weeks was followed by 2 treatment periods, each of which included approximately 78 hours in-clinic confinement followed by 3 outpatient follow-up visits. Dose administration occurred on Day 1 and Day 29. During the first treatment period, subjects were admitted to the clinic on Day −1, the day before first study drug administration (Day 1), and remained in clinic until discharge on Day 3. Subjects returned to the clinic for 3 subsequent visits (Days 5, 7, and 14) for PK sample collection. Following a washout period (consisting of 28 non-dosing days), subjects returned and were readmitted to the clinic for the second treatment period on Day 28, the day before the second study drug administration (Day 29), and remained in clinic until discharge on Day 31. Subjects returned to the clinic for 3 subsequent visits (Days 33, 35, and 42) for PK sample collection. Day 42 was the End of Study visit.
Evaluation: Blood for serial PK sampling was obtained from all subjects prior to efavirenz administration (pre-dose) and at specified time points after efavirenz administration on Days 1 and 29 for each treatment sequence. The recorded times for dasotraline PK plasma sample collections were relative to efavirenz dosing time. The primary parameters for efavirenz analysis were maximum observed plasma concentration (Cmax), time of maximum observed plasma concentration (tmax), area under the concentration-time curve (AUC) from time 0 to time t (AUC0-t), AUC from time 0 to the time of last measurable concentration (AUC0-last), AUC from time 0 extrapolated to infinity (AUC0-inf), terminal elimination rate constant (λZ), apparent terminal elimination half-life (t1/2), apparent total clearance (CL/F), and apparent volume of distribution during the terminal elimination phase (Vz/F). The primary parameters for dasotraline analysis were Cmax, AUC0-last, AUC0-t, and AUC0-inf.
Statistical Methods: All analyses involving PK data (e.g., plasma concentrations, derived PK parameters, assessment of drug-drug interaction) were performed on the PK population. For plasma concentrations of dasotraline and efavirenz, descriptive statistics (e.g., number, arithmetic mean, arithmetic standard deviation, minimum, median, maximum, 25th percentile, 75th percentile, geometric mean, and geometric coefficient of variation) were listed and summarized by time point by treatment for the PK population. Mean plasma concentration-time profiles were plotted by treatment on linear and semi-logarithmic scales. Individual subject linear and semi-logarithmic concentration-time plots, with respective treatments presented together, were included in the appendices.
To evaluate the effect of dasotraline on the PK of efavirenz, a mixed effect analysis of variance (ANOVA) was applied for the primary endpoint on natural log-transformed Cmax, AUC0-last, AUC0-t, and AUC0-inf of efavirenz. The model included treatment, sequence, and period as fixed effects and subject nested within sequence as a random effect. Only subjects who completed both treatment periods were included in the overall ANOVA to allow for an intra-subject comparison to be conducted. […]

The nature of series [2]: clinical. Particulars: human, in vivo. How it is done:
Eight clinical studies—including single dose pharmacokinetic (PK), multiple dose PK, efficacy, safety, and tolerability, human abuse liability, absorption, metabolism, and excretion, and safety, efficacy, and tolerability in adults with attention-deficit hyperactivity disorder—were completed with dasotraline. In those studies, single doses ranging from 0.2 mg to 36 mg and multiple doses from 0.5 mg/day to 8 mg/day for 21 to 56 days were evaluated. Dasotraline was slowly absorbed into the systemic circulation, reaching time of maximum observed plasma concentration (tmax) approximately 10 to 12 hours after single administration of doses ranging from 0.2 to 36 mg. The change in maximum observed plasma concentration (Cmax) with dose was nearly dose proportional for the same doses. […] Dasotraline is extensively metabolized by oxidation and subsequent phase II metabolism. CYP2B6 oxidizes dasotraline to “dasotraline oxime”: […]
The source holds these as a separate data set.

In the next series the target is T1, CYP2B6 (Homo sapiens, UniProt P20813).
T1 construct: measuring the activity of CYP2B6 in human liver microsomes; from tissue; host or cells: human liver microsomes
T1 sequence (P20813 1-491): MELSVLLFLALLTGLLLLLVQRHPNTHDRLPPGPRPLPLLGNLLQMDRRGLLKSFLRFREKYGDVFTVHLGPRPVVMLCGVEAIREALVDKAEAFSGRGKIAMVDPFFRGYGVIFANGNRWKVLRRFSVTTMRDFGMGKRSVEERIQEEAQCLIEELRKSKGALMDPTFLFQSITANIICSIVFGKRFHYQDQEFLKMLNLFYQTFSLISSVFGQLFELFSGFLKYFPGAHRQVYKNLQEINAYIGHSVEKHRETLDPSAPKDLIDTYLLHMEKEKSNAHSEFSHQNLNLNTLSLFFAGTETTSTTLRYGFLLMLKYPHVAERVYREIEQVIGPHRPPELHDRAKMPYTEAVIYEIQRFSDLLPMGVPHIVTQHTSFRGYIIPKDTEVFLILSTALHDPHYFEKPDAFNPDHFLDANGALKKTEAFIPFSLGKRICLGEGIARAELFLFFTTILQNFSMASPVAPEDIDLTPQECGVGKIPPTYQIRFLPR
In words: Inhibition of CYP2B6 activity in human liver microsomes (direct and time-dependent). Type of series: in vitro ADME. The procedure:
The inhibitory potency of dasotraline was determined in vitro by measuring the activity of CYP2B6 in human liver microsomes in the presence and absence of dasotraline. […] Furthermore, dasotraline was determined to be a time-dependent inhibitor of CYP2B6 with an apparent inactivation constant of 0.12 μM and a maximal inactivation rate constant of 0.15 min-1. Based on the Food and Drug Administration Draft Guidance: Drug Interaction Studies (February 2012) and the prediction using physiologically-based PK modeling and simulation there is a potential for dasotraline to inhibit the metabolism pathway of CYP2B6 substrates through time-dependent inhibition. Therefore, the effect of dasotraline on the PK of a CYP2B6 substrate (ie, efavirenz) was studied clinically.

By Vd/F is commonly meant the apparent distribution volume after extravascular dosing. By Cmax is commonly meant the maximum level reached in the sampled fluid or tissue. The term AUC(0-t) denotes exposure summed from dosing to a finite time, without extrapolation to infinity. Lower therefore signals less exposure. The AUC(0-inf) is the area under the concentration-time curve extrapolated to infinity. A low value points to low exposure. The half-life is the time in which the quantity being followed falls by half. Broadly, the Tmax is the time from dosing to the highest level.

In the series “clinical [1]” (both sexes), `O=C1Nc2ccc(Cl)cc2[C@@](C#CC2CC2)(C(F)(F)F)O1` [Efavirenz] yielded a Vd/F of 525 L. In “clinical [1]” (both sexes, 400 mg), this compound registered a Cmax of 1560 ng/mL and a Vd/F of 759 L. Also, the exposure AUC(0-t) in the series “clinical [1]” (both sexes, 400 mg, AUC0-24) worked out at 18200 ng·h/mL. In the series “clinical [1]” (both sexes, 400 mg, AUC0-inf), this compound displayed an AUC(0-inf) of 92000 ng·h/mL. Moreover, the AUC(0-t) in the series “clinical [1]” (both sexes, 400 mg, AUC0-last) worked out at 80400 ng·h/mL. For the same compound, in the series “clinical [1]” (both sexes, 400 mg, t1/2), the half-life is 143 h. In addition, the Tmax in the series “clinical [1]” (both sexes, 400 mg, tmax, median) was 3.05 h. Further, in the series “clinical [1]” (both sexes, Mean AUC from time 0 to 24 hours post-dose (AUC0-24)), the AUC(0-t) stood at 19000 ng·h/mL. The compound also had a half-life in “clinical [1]” (both sexes, Mean terminal half-life) of 143 h. Further, the time to peak (Tmax) in the series “clinical [1]” (both sexes, Median tmax) worked out at 4 h. The AUC(0-inf) in “clinical [1]” (both sexes, mean AUC0-inf) is 87900 ng·h/mL. This compound had an AUC(0-t) in “clinical [1]” (both sexes, mean AUC0-last) of 112000 ng·h/mL. Moreover, the half-life in the series “clinical [1]” (both sexes, t1/2) was 161 h. Further, in “clinical [1]” (both sexes, tmax, median), the time of peak concentration (Tmax) was 4 h. In “clinical [1]” (both), the “Mean AUC from time 0 to 24 hours post-dose (AUC0-24)” value is on record as 17,700 h*ng/mL, the Mean terminal half-life is 161 h, the Median tmax result was “approximately 3 hours” and the “geometric LS mean ratio for AUC0-24” value turned out to be 107.5%. For the same compound, in “clinical [1]” (both), the “geometric LS mean ratio for AUC0-inf” value was 153.5%, the “geometric LS mean ratio for AUC0-last” value stood at 143.1%, the “geometric LS mean ratio for Cmax” value was determined as 98.5% and the “mean AUC0-inf” value was 135,000 h*ng/mL. Further, the “mean AUC0-last” value in “clinical [1]” (both) is reported as 78,200 h*ng/mL.

`N[C@@H]1CC[C@@H](c2ccc(Cl)c(Cl)c2)c2ccccc21` [Dasotraline, (1R,4S)-4-(3,4-dichlorophenyl)-1,2,3,4-tetrahydronaphthalen-1-amine]: in the series “clinical [2]”, the Tmax was in the range of 10 to 12 h and the half-life lay in the range of 47.1 to 77 h. Besides, the Ki on CYP2B6 (direct competitive inhibition, read-out: inhibition constant) is 220 nM. Also, at CYP2B6 (time-dependent inhibition), the apparent inactivation constant came to 0.12 µM and the “maximal inactivation rate constant” value was 0.15 min⁻¹.
